Experimental data: ChEMBL document CHEMBL5154663, “Biotinylated curcumin as a novel chemosensitizer enhances naphthalimide-induced autophagic cell death in breast cancer cells” (Eur J Med Chem, 2022)
pIC50: −log10 of the molar value. Each block holds one compound with its values, some of them ahead of it. Active and inactive are the calls of the source. No cut-off for these calls is given here.

Assays:
B16-F10 [1] = assay: Antiproliferative activity against mouse B16-F10 cells assessed as cell viability in light irradiation and measured for 48 hrs by MTT assay; type: functional, cell-based; conditions: B16-F10, light or radiation study
MCF7 [2] = assay: Antiproliferative activity against human MCF7 cells assessed as cell viability in dark incubated for 48 hrs by MTT assay; type: functional, cell-based; conditions: MCF7, 48 h
B16-F10 [3] = assay: Antiproliferative activity against mouse B16-F10 cells assessed as cell viability in dark incubated for 48 hrs by MTT assay; type: functional, cell-based; conditions: B16-F10, 48 h
MCF7 [4] = assay: Antiproliferative activity against human MCF7 cells assessed as cell viability in light irradiation and measured after 48 hrs by MTT assay; type: functional, cell-based; conditions: MCF7, light or radiation study
MCF7 [5] = assay: Induction of cell membrane permeability in human MCF7 cells at 5 uM in presence of light irradiation by confocal microscopy analysis; type: functional
[6] = Toxicity in BALB/c nude mouse xenografted with human MCF7 cells assessed as effect on body weight at 5 mg/kg, ip administered once daily for 15 days in presence of light irradiation; type: organism-based; conditions: in vivo, 360 h, time 15 day
MCF7 [7] = assay: Induction of ROS generation in human MCF7 cells assessed as increase in ROS level at 5 uM for 10 mins by DCFH-DA staining-based flow cytometry; type: functional
MCF7 [8] = assay: Potentiation of MCLOP induced ROS generation in human MCF7 cells assessed as increase in ROS level at 5 uM for 10 mins by DCFH-DA staining-based flow cytometry; type: functional
[9] = Toxicity in BALB/c nude mouse xenografted with human MCF cells assessed as MCLOP induced morphological changes in heart at 5 mg/kg, ip administered once daily for 15 days by H and E staining based analysis; type: organism-based; conditions: in vivo, 360 h, time 15 day
MCF7 [10] = assay: Potentiation of MCLOP induced cell membrane permeability in human MCF7 cells at 5 uM in dark by confocal microscopy analysis; type: functional
MCF7 [11] = assay: Potentiation of MCLOP induced autophagy in human MCF7 cells assessed as decrease in p62 protein level at 5 uM measured after 24 hrs by western blot analysis; type: functional, cell-based
MCF7 [12] = assay: Potentiation of MCLOP induced increase in HClO level in human MCF7 cells by fluorescence method; type: functional
MCF7 [13] = assay: Potentiation of MCLOP induced antitumor activity against human MCF7 cells xenografted in Balb/c nude mouse assessed as tumor growth inhibition at 5 mg/kg, ip administered once daily for 15 days in presence of light irradiation; type: functional, organism-based; conditions: time 15.0 day
[14] = Octanol-water partition coefficient, logP of the compound; type: physicochemical
MCF7 [15] = assay: Potentiation of MCLOP induced cell membrane permeability in human MCF7 cells at 5 uM in presence of light irradiation by confocal microscopy analysis; type: functional
[16] = Toxicity in BALB/c nude mouse xenografted with human MCF cells assessed as MCLOP induced morphological changes in kidney at 5 mg/kg, ip administered once daily for 15 days by H and E staining based analysis; type: organism-based; conditions: in vivo, 360 h, time 15 day
[17] = Effect on HClO level in human MCF7 cells by fluorescence method; type: functional
[18] = Toxicity in BALB/c nude mouse xenografted with human MCF cells assessed as MCLOP induced morphological changes in liver at 5 mg/kg, ip administered once daily for 15 days by H and E staining based analysis; type: organism-based; conditions: in vivo, 360 h, time 15 day
[19] = Toxicity in BALB/c nude mouse xenografted with human MCF cells assessed as MCLOP induced morphological changes in spleen at 5 mg/kg, ip administered once daily for 15 days by H and E staining based analysis; type: organism-based; conditions: in vivo, 360 h, time 15 day
MCF7 [20] = assay: Potentiation of MCLOP induced autophagy in human MCF7 cells assessed as increase in […] protein ratio level at 5 uM and measured after 24 hrs by western blot analysis; type: functional, cell-based
MCF7 [21] = assay: Potentiation of MCLOP induced autophagy in human MCF7 cells assessed as induction of autophagosomes formation by measuring increase LC3 puncta at 5 uM measured after 24 hrs by confocal microscopic analysis; type: functional, cell-based
[22] = Toxicity in BALB/c nude mouse xenografted with human MCF cells assessed as MCLOP induced morphological changes in lung at 5 mg/kg, ip administered once daily for 15 days by H and E staining based analysis; type: organism-based; conditions: in vivo, 360 h, time 15 day
MCF7 [23] = assay: Potentiation of MCLOP induced antiproliferative activity against human MCF7 cells assessed as cell survial rate in presence of light irradiation at 10 uM and measured after 48 hrs by MTT assay; type: functional
MCF7 [24] = assay: Cytotoxicity against human MCF7 cells assessed as cell viability at 10 uM incubated for 48 hrs by MTT assay; type: toxicity, cell-based; conditions: mcf7, 48 h

pIC50 (B16-F10 [1]): 5.26 | pIC50 (MCF7 [2]): 4.83 | pIC50 (B16-F10 [3]): 5.15 | pIC50 (MCF7 [4]): 4.98
SMILES: CN(C)c1ccc2nc3ccc(N(C)C)cc3[s+]c2c1 [METHYLENE BLUE ANHYDROUS]

pIC50 (B16-F10 [1]): 4.51 | pIC50 (MCF7 [2]): < 4.40 | pIC50 (B16-F10 [3]): < 4.40 | pIC50 (MCF7 [4]): 4.90
SMILES: CN(C)c1ccc2c(c1)Sc1cc(N(C)C)ccc1N2C(=O)NCCN1C(=O)c2cccc3cc([N+](=O)[O-])cc(c23)C1=O
fold change (FC) (MCF7 [5]): 4.1 | Activity [6]: Non-Toxic | fold change (FC) (MCF7 [7]): 3.1

logP [14]: 0.91
SMILES: COc1cc(/C=C/C(=O)CC(=O)/C=C/c2ccc(OC(=O)CCCC[C@@H]3SC[C@@H]4NC(=O)N[C@@H]43)c(OC)c2)ccc1O
fold change (FC) (MCF7 [8]): 5.6 | Activity [9]: Non-Toxic | fold change (FC) (MCF7 [10]): 3 | Activity (MCF7 [11]): Active | Activity [6]: Non-Toxic | fold change (FC) (MCF7 [12]): 2.2 | Activity (MCF7 [13]): Active | Activity (MCF7 [7]; DDE = dose-dependent effect): Dde | fold change (FC) (MCF7 [15]): 5.3 | Activity [16]: Non-Toxic | fold change (FC) [17]: 2.3 | Activity [18]: Non-Toxic | Activity [19]: Non-Toxic | Activity (MCF7 [20]): Active | Activity (MCF7 [21]): Active | Activity [22]: Non-Toxic

logP [14]: 2.04
SMILES: COc1cc(/C=C/C(=O)CC(=O)/C=C/c2ccc(O)c(OC)c2)ccc1O [CURCUMIN]
Activity (MCF7 [23]): 20% | Activity (MCF7 [24]): Non-Toxic
